Here are results for 1 molecule from article PMC7669869, “AdipoR1/AdipoR2 dual agonist recovers nonalcoholic steatohepatitis and related fibrosis via endoplasmic reticulum-mitochondria axis” (Nature Communications, 2020).

One assay deals with T1, AdipoR2 (Homo sapiens, UniProt Q86V24).
T1 construct: His; host or cells: HEK293
T1 sequence (Q86V24 1-386): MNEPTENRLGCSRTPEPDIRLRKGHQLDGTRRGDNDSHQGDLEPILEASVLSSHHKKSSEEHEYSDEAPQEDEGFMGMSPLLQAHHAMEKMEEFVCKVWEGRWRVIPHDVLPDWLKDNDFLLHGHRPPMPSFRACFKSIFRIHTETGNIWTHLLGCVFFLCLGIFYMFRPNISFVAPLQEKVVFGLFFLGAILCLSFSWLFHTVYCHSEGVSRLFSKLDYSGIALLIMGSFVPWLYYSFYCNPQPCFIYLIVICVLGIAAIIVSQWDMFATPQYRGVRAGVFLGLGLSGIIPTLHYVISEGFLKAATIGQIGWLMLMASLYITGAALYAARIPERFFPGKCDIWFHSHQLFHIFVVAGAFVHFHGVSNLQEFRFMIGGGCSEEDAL
The assay is described as follows: HTRF binding, AdipoR2 overexpression HEK293 cells. Particulars: in words. The method, then: The expression plasmid of AdipoR1 and AdipoR2 were synthesized and codon optimized by Genescript (Nanjing, China) for their expression in HEK293 cell line. The concentration of FITC-JT003 was 0, 0.1, 0.25, 0.5, 1, 2.5 or 5 μM respectively. Unlabeled peptide JT003 was used as the control to measure the non-specific signal. 10E4 AdipoR1 and AdipoR2 overexpression cells, anti-His-Tb (ThermoFisher Scientific, USA) and JT003-FITC were added into a 384-well plate, with a total volume of 25μl. The mixtures were incubated at room temperature for 30 min in the dark. Fluorescent values at 520 nm and 620 nm were measured for Kd calculation.

Assay [1] concerns αSMA expression in LX2 cells. The assay is described as follows: Western blotting for αSMA expression in LX2. It is filed as cell-based, human. Particulars: LX2, 200 μM peptide, 48 h; western blot; in words. The protocol:
Hepatoma carcinoma cell line HepG2 and human hepatic activated stellate cell line LX2 used in this study were purchased from Type Culture Collection of the Chinese Academy of Sciences (Shanghai, China). Cells were cultured in Dulbecco’s modified Eagle’s medium (DMEM) with 10% fetal bovine serum (FBS), supplemented with 1% penicillin–streptomycin (ThermoFisher Scientific, USA) at 37 °C in a humidified atmosphere of 5% CO2. In PA (Sigma, USA) induced lipid accumulation cell model, HepG2 cells were seeded into a 6-well plate at 5E5 cells per well. 0.25 mM PA and/or 200 μM candidate peptides were co-incubated with cells for 24 h. Then Oil Red O staining was performed to evaluate the accumulation of lipid droplets. BSA (Sigma, USA) was used in this experiment as the negative control. […]
Total protein was isolated from cells or liver samples using RIPA lysis buffer (50.0 mM Tris-HCl (pH = 8.0), 150.0 mM NaCl, 0.02% NaN3, 0.1% SDS, 1% NP-40, 0.5% deoxysodium cholate, 1 mM EDTA, […]). The protein concentration was quantified with BCA kit (Pierce, ThermoFisher Scientific, USA). […] After incubation with the secondary antibody, proteins were detected by enhanced chemiluminescence (Glarity^TM Western ECL Substrate, Bio-Rad, USA) and the signals were recorded and quantified with Tanon-Image Software (Shanghai, China). […]
Background: In western blotting, separated proteins are transferred to a membrane and probed.

Assay [2] concerns liver protein expression of CCl4 induced liver fibrosis mice. Nature of the assay: CCl4 mice: liver western blot. It is filed as in vivo, mouse. The method, then:
Male mice liver fibrosis was induced by intraperitoneal injection of 20% CCl4 (Sigma, USA) diluted in corn oil (Aladdin, China) every 3 days for 6 weeks (n = 6; 5 ml kg^−1 body weight). Mice injected with equivalent volume of corn oil serves as control group (n = 6). Liver fibrosis mice treated with JT003 for 3 weeks were used to evaluated the pharmacological effects (n = 6; 500 μg kg^−1; daily intraperitoneal injection).
Total protein was isolated from cells or liver samples using RIPA lysis buffer (50.0 mM Tris-HCl (pH = 8.0), 150.0 mM NaCl, 0.02% NaN3, 0.1% SDS, 1% NP-40, 0.5% deoxysodium cholate, 1 mM EDTA, […]). The protein concentration was quantified with BCA kit (Pierce, ThermoFisher Scientific, USA). Thirty micrograms protein were separated by 10 or 12% sodium dodecyl sulfate-polyacrylamide gel electrophoresis depending on the band of target protein, then transferred onto equilibrated polyvinylidene difluoride membrane (PVDF, Immobilon®-PSQ transfer membranes, Merck Millipore, Germany). Membranes were incubated with primary antibodies overnight at 4 °C. Specific antibodies were listed in Supplementary Table 3. After incubation with the secondary antibody, proteins were detected by enhanced chemiluminescence (Glarity^TM Western ECL Substrate, Bio-Rad, USA) and the signals were recorded and quantified with Tanon-Image Software (Shanghai, China). Reference antibody GAPDH were used for data normalization.

The test system of assay [3] is CCl4 induced liver fibrosis mice. The assay is described as follows: CCl4 mice: serum ALT, AST and liver HYP. It counts as in vivo, mouse. Particulars: Figure 5b; CCl4 + JT003 group; single animals, n = 5.
For a further assay, the system named is HFD + MCD diet NASH mice. The assay is described as follows: HFD combined with MCD diet NASH mice: weight gain, HE steatosis area. It counts as in vivo, mouse. Particulars: HFD 16 weeks + MCD diet last 4 weeks; compared with ADP355; in words. The protocol:
The NASH model was conducted with feeding a HFD for 16 weeks combine with a MCD diet (Methionine/Choline Deficient Diet, Medicience, China) in the last 4 weeks. Mice administered a MCS diet (Methionine/Choline Sufficient Diet, Medicience, China) serves as control group. NAFLD or NASH mice treated with JT003 for 4 weeks were used to evaluate the pharmacological effects (n = 6; 500 μg kg^−1; daily intraperitoneal injection). Food and water were provided ad libitum. The body weight of mice was examined every 3 days. The diet was renewed every 7 days. JT003 was diluted in PBS.
The levels of TG and HYP in liver tissue were detected with certain commercial assay kit (Nanjing Jiancheng Bioengineering Institute, China). Formalin-fixed liver tissues were embedded in paraffin, sectioned into 5 μm slices. After deparaffinization and rehydration of the section slices, they were stained with Haematoxylin and Eosin or Periodic Acid-Schiff. For the detection of liver collagen content, Sirius Red staining for collagen was performed. […] The cryostat-cut slices were stained with freshly prepared Oil Red O working solution for 7 min Two independent experimenters who were blinded to the treatment evaluated the staining slides and analyzed the score for steatosis, glucogen accumulation and collagen proliferation area.

Setting [4] is: Figure 7e, liver western blot, CCl4 + JT003 group, single replicates, n = 4.
Where [5] appears, read: Figure 7f, liver western blot, CCl4 + JT003 group, single replicates, n = 4.

Where “and” joins values, the source holds several entries; their conditions need not be identical. Identical values can stand only once. Entries after “also recorded” stand apart in the source; their conditions may differ. Non-standard residues stand in square brackets, D forms with d. Residues, ends and D or L forms follow the SMILES beside them. Nva = CCC[C@H](N)C(=O)O

Consider `CCC[C@H](NC(=O)[C@@H]1CCCN1)C(=O)N[C@@H](CC(C)C)C(=O)N[C@@H](Cc1ccc(O)cc1)C(=O)N[C@@H](Cc1ccc(O)cc1)C(=O)N[C@@H](Cc1ccccc1)C(=O)N[C@@H](C)C(N)=O` [JT003] (H-P[Nva]LYYFA-NH2), for which the “Kd value for AdipoR2 compared to JT006 and ADP355” value on AdipoR2 is reported as “significantly lower Kd value”. The “expression level of αSMA in LX2 cells” value in assay [1] was “significantly decrease; also recorded: showed the best performance in inhibiting fibroblast formation”. In addition, the “NFκB (western blotting)” value in assay [2] (CCl4 fibrosis mice, liver, JT003 500 μg kg−1, in words) is “significantly downregulated”. Besides, the “phosphorylation levels of JNK, eIF2α and PERK” value in assay [2] (CCl4 induced fibrosis mice, liver, JT003 500 μg kg−1, in words) is recorded as “decreased phosphorylation levels”. Also, the “αSMA and COL1α1 (western blot, liver)” value in assay [2] (CCl4 mice, JT003 500 μg kg−1, in words) is given as “significant downregulation”. Further, in assay [2] (setting [4]), the pJNK/JNK is 0.7206 and 0.4902 and 0.6285 and 0.438; the pPERK/PERK was 0.5616 and 0.9445 and 0.6641 and 0.5949; the peIF2a/eIF2a was 1.116 and 0.4247 and 0.9192 and 0.3729. Also, in assay [2] (setting [5]), the CYP2E1/GAPDH is 1.469 and 1.0581 and 1.298 and 1.11; the PGC1a/GAPDH is 2.2635 and 2.209 and 2.565 and 2.497. Besides, in assay [2] (Figure 6d, liver, CCl4 + JT003 group, single replicates, n = 4), the “anti-PP65 / anti-P65 western blot quantification” value was 0.3517 and 0.3717 and 0.2194 and 0.5295. For the same molecule, in assay [3], the “alt Enzymatic Activity” value is 182.294 U/L and 119.931 U/L and 31.0646 U/L and 95.3544 U/L and 50.0405 U/L. In addition, the “lipid accumulation in HFD combine with MCD diet NASH mouse model” value with HFD + MCD diet NASH mice is “inhibited lipid accumulation significantly with a 20 times lower dosage”.
